Reference: PMC5218480 (PLoS ONE, 2017)

Test system: MV-4-11 cells
Assay: Gene expression microarray analysis (Affymetrix PrimeView) and GSEA
Assay type: cell-based, human
Parameters: RFU PODN (11730768_x_at) / Fold change /veh PODN (11730768_x_at) / RFU LINC00158 (11744669_a_at) / Fold change /veh LINC00158 (11744669_a_at) / RFU DUSP10 (11751237_a_at) / Fold change /veh DUSP10 (11751237_a_at) / RFU ID3 (11757404_x_at) / Fold change /veh ID3 (11757404_x_at) / RFU PLEKHG5 (11737974_s_at) / Fold change /veh PLEKHG5 (11737974_s_at) / RFU LRRC4B (11730491_at) / Fold change /veh LRRC4B (11730491_at) / RFU GIMAP4 (11747438_a_at) / Fold change /veh GIMAP4 (11747438_a_at) / RFU KRT8 (11758183_x_at) / Fold change /veh KRT8 (11758183_x_at) / RFU CNN1 (11734310_a_at) / Fold change /veh CNN1 (11734310_a_at) / RFU VPS37D (11726825_at) / Fold change /veh VPS37D (11726825_at) / RFU C10orf10 (11716522_x_at) / Fold change /veh C10orf10 (11716522_x_at) / RFU KIR2DL2 /// KIR2DL4 /// KIR2DL5A /// KIR2DL5B /// KIR2DS1 /// KIR2DS2 /// KIR2DS3 /// KIR2DS4 /// KIR3DL3 /// KIR3DL3 /// KIR3DS1 (11738374_at) / Fold change /veh KIR2DL2 /// KIR2DL4 /// KIR2DL5A /// KIR2DL5B /// KIR2DS1 /// KIR2DS2 /// KIR2DS3 /// KIR2DS4 /// KIR3DL3 /// KIR3DL3 /// KIR3DS1 (11738374_at) / RFU C1QL1 (11718748_at) / Fold change /veh C1QL1 (11718748_at) / RFU TMPRSS4 (11747572_a_at) / Fold change /veh TMPRSS4 (11747572_a_at) / RFU HAMP (11756126_x_at) / Fold change /veh HAMP (11756126_x_at) / RFU RNFT2 (11725882_a_at) / Fold change /veh RNFT2 (11725882_a_at) / RFU NR4A2 (11747474_a_at) / Fold change /veh NR4A2 (11747474_a_at) / RFU ABCC12 (11746883_a_at) / Fold change /veh ABCC12 (11746883_a_at) / RFU TMEM136 (11760407_x_at) / Fold change /veh TMEM136 (11760407_x_at) / RFU CLDN22 /// WWC2 (11732394_at) / Fold change /veh CLDN22 /// WWC2 (11732394_at) / RFU HLA-DPB1 (11760878_x_at) / Fold change /veh HLA-DPB1 (11760878_x_at) / RFU SPINT1 (11716480_a_at) / Fold change /veh SPINT1 (11716480_a_at) / RFU GAP43 (11754022_s_at) / Fold change /veh GAP43 (11754022_s_at) / RFU A4GNT (11735810_at) / Fold change /veh A4GNT (11735810_at) / RFU PRB3 (11715151_x_at) / Fold change /veh PRB3 (11715151_x_at) / RFU TUBB4B (11761932_at) / Fold change /veh TUBB4B (11761932_at) / RFU CAPN14 (11732068_a_at) / Fold change /veh CAPN14 (11732068_a_at) / RFU TMCC2 (11721928_a_at) / Fold change /veh TMCC2 (11721928_a_at) / RFU IRGQ (11745062_a_at) / Fold change /veh IRGQ (11745062_a_at) / RFU FAM174B (11720279_a_at) / Fold change /veh FAM174B (11720279_a_at) / RFU TMPRSS4 (11748680_a_at) / Fold change /veh TMPRSS4 (11748680_a_at) / RFU FAM212B (11763350_a_at) / Fold change /veh FAM212B (11763350_a_at) / RFU PLEKHG5 (11743358_a_at) / Fold change /veh PLEKHG5 (11743358_a_at) / RFU ZSCAN30 (11745921_a_at) / Fold change /veh ZSCAN30 (11745921_a_at) / RFU CMKLR1 (11741424_a_at) / Fold change /veh CMKLR1 (11741424_a_at) / RFU LOC101060620 /// MAPK8IP1 (11723275_at) / Fold change /veh LOC101060620 /// MAPK8IP1 (11723275_at) / RFU SPTSSB (11747773_x_at) / Fold change /veh SPTSSB (11747773_x_at) / RFU PRSS12 (11739890_at) / Fold change /veh PRSS12 (11739890_at) / RFU BIN1 (11741810_x_at) / Fold change /veh BIN1 (11741810_x_at) / RFU WNT11 (11732464_a_at) / Fold change /veh WNT11 (11732464_a_at) / RFU C10orf10 (11716521_a_at) / Fold change /veh C10orf10 (11716521_a_at) / RFU C5orf56 (11738089_at) / Fold change /veh C5orf56 (11738089_at) / RFU CYB561 (11721691_x_at) / Fold change /veh CYB561 (11721691_x_at) / RFU ANKRD19P (11752326_a_at) / Fold change /veh ANKRD19P (11752326_a_at) / RFU OR2T12 /// OR2T33 /// OR2T8 (11738714_s_at) / Fold change /veh OR2T12 /// OR2T33 /// OR2T8 (11738714_s_at) / RFU VCAN (11748164_a_at) / Fold change /veh VCAN (11748164_a_at) / RFU JSRP1 (11732532_at) / Fold change /veh JSRP1 (11732532_at) / RFU KRTAP10-11 (11738290_x_at) / Fold change /veh KRTAP10-11 (11738290_x_at) / RFU MYO3A (11730013_a_at) / Fold change /veh MYO3A (11730013_a_at) / RFU EBF3 (11725865_a_at) / Fold change /veh EBF3 (11725865_a_at) / RFU CAMK2N1 (11719241_x_at) / Fold change /veh CAMK2N1 (11719241_x_at) / RFU C5orf56 (11738088_a_at) / Fold change /veh C5orf56 (11738088_a_at) / RFU OLFML3 (11715873_a_at) / Fold change /veh OLFML3 (11715873_a_at) / RFU LOC100653217 /// NTM (11731650_a_at) / Fold change /veh LOC100653217 /// NTM (11731650_a_at) / RFU MAPK11 (11762145_a_at) / Fold change /veh MAPK11 (11762145_a_at) / RFU FIZ1 (11724087_x_at) / Fold change /veh FIZ1 (11724087_x_at) / RFU OASL (11726364_x_at) / Fold change /veh OASL (11726364_x_at) / RFU SOX15 (11748057_x_at) / Fold change /veh SOX15 (11748057_x_at) / RFU CD79A (11719716_a_at) / Fold change /veh CD79A (11719716_a_at) / RFU HIST1H1D (11736915_at) / Fold change /veh HIST1H1D (11736915_at) / RFU CASKIN2 (11723855_a_at) / Fold change /veh CASKIN2 (11723855_a_at) / RFU LOC730098 (11760151_x_at) / Fold change /veh LOC730098 (11760151_x_at) / RFU OR4N2 (11742367_at) / Fold change /veh OR4N2 (11742367_at) / RFU PRRT2 (11749266_a_at) / Fold change /veh PRRT2 (11749266_a_at) / RFU SNX32 (11753110_a_at) / Fold change /veh SNX32 (11753110_a_at) / RFU CDHR5 (11726645_a_at) / Fold change /veh CDHR5 (11726645_a_at) / RFU RCAN1 (11760418_a_at) / Fold change /veh RCAN1 (11760418_a_at) / RFU FAM167A (11723789_a_at) / Fold change /veh FAM167A (11723789_a_at) / RFU FAM26E (11764081_at) / Fold change /veh FAM26E (11764081_at) / RFU ISYNA1 (11749810_s_at) / Fold change /veh ISYNA1 (11749810_s_at) / RFU ACY1 (11761880_at) / Fold change /veh ACY1 (11761880_at) / RFU 11764098_at / Fold change /veh 11764098_at / RFU SAMD14 (11745864_x_at) / Fold change /veh SAMD14 (11745864_x_at) / RFU NPB (11741838_a_at) / Fold change /veh NPB (11741838_a_at) / RFU TMPRSS6 (11731388_a_at) / Fold change /veh TMPRSS6 (11731388_a_at) / RFU KRTAP10-2 (11738614_at) / Fold change /veh KRTAP10-2 (11738614_at) / RFU ARHGAP8 /// PRR5-ARHGAP8 (11727945_x_at) / Fold change /veh ARHGAP8 /// PRR5-ARHGAP8 (11727945_x_at) / RFU KRTAP5-7 /// NADSYN1 (11734609_at) / Fold change /veh KRTAP5-7 /// NADSYN1 (11734609_at) / RFU RASL12 (11751679_a_at) / Fold change /veh RASL12 (11751679_a_at) / RFU CDKN2B (11736163_a_at) / Fold change /veh CDKN2B (11736163_a_at) / RFU PRF1 (11729649_at) / Fold change /veh PRF1 (11729649_at) / RFU, ZNF638 /// ZNF638-IT1 / Fold change vs veh, ZNF638 /// ZNF638-IT1 / RFU, PANK3 / Fold change vs veh, PANK3 / RFU, SH3YL1 / Fold change vs veh, SH3YL1 / RFU, ZEB2 / Fold change vs veh, ZEB2 / RFU, NRIP1 / Fold change vs veh, NRIP1 / RFU, PTTG1IP / Fold change vs veh, PTTG1IP / RFU, CAPN2 / Fold change vs veh, CAPN2 / RFU, MED14 / Fold change vs veh, MED14 / RFU, SNORA58 / Fold change vs veh, SNORA58 / RFU, C1orf63 / Fold change vs veh, C1orf63 / RFU, LRRFIP1 / Fold change vs veh, LRRFIP1 / RFU, NDUFAF7 / Fold change vs veh, NDUFAF7 / RFU, SLC12A2 / Fold change vs veh, SLC12A2 / RFU, IBTK / Fold change vs veh, IBTK / RFU, ESF1 / Fold change vs veh, ESF1 / Fold change vs veh, TMEM50B / RFU, TAOK1 / Fold change vs veh, TAOK1 / RFU, ACBD3 / Fold change vs veh, ACBD3 / RFU, TMA16 / Fold change vs veh, TMA16 / RFU, RWDD3 / Fold change vs veh, RWDD3 / RFU, BCAT1 / Fold change vs veh, BCAT1 / RFU, EDEM3 / Fold change vs veh, EDEM3 / RFU, TMEM33 / Fold change vs veh, TMEM33 / RFU, WDR75 / Fold change vs veh, WDR75 / RFU, AHCTF1 / Fold change vs veh, AHCTF1 / RFU, TFRC / Fold change vs veh, TFRC / RFU, ZDHHC17 / Fold change vs veh, ZDHHC17 / RFU, NOM1 / Fold change vs veh, NOM1 / RFU, ARL8B / Fold change vs veh, ARL8B / RFU, ZBTB11 / Fold change vs veh, ZBTB11 / RFU, TAMM41 / Fold change vs veh, TAMM41 / RFU, KIAA1704 /// LOC100996395 / Fold change vs veh, KIAA1704 /// LOC100996395 / RFU, ING1 / Fold change vs veh, ING1 / RFU, TRMT61B / Fold change vs veh, TRMT61B / RFU, FUBP3 / Fold change vs veh, FUBP3 / RFU, TP53 / Fold change vs veh, TP53 / RFU, TNKS2 / Fold change vs veh, TNKS2 / RFU, ZFP14 / Fold change vs veh, ZFP14 / RFU, ACTR2 / Fold change vs veh, ACTR2 / RFU, PPP3R1 / Fold change vs veh, PPP3R1 / RFU, PIK3R1 / Fold change vs veh, PIK3R1 / RFU, HNRNPA1 / Fold change vs veh, HNRNPA1 / RFU, RNF170 / Fold change vs veh, RNF170 / RFU, ZNF28 / Fold change vs veh, ZNF28 / RFU, RNGTT / Fold change vs veh, RNGTT / RFU, OGT / Fold change vs veh, OGT / RFU, BRD1 / Fold change vs veh, BRD1 / RFU, MARS / Fold change vs veh, MARS / RFU, ZNF655 / Fold change vs veh, ZNF655 / RFU, FAHD1 / Fold change vs veh, FAHD1 / RFU, BDP1 / Fold change vs veh, BDP1 / RFU, LRRCC1 / Fold change vs veh, LRRCC1 / RFU, ARID1A / Fold change vs veh, ARID1A / RFU, ZNF146 / Fold change vs veh, ZNF146 / RFU, ZNF330 / Fold change vs veh, ZNF330 / RFU, GPN3 / Fold change vs veh, GPN3 / RFU, C9orf123 / Fold change vs veh, C9orf123 / RFU, N4BP2L2 / Fold change vs veh, N4BP2L2 / RFU, ARFIP1 / Fold change vs veh, ARFIP1 / RFU, FAM179B / Fold change vs veh, FAM179B / RFU, BCL10 / Fold change vs veh, BCL10 / RFU, UHRF1BP1L / Fold change vs veh, UHRF1BP1L / RFU, BET1 / Fold change vs veh, BET1 / RFU, CNOT2 / Fold change vs veh, CNOT2 / RFU, ZNF268 / Fold change vs veh, ZNF268 / Fold change vs veh, ZNF507 / RFU, DGCR2 / Fold change vs veh, DGCR2 / RFU, WDSUB1 / Fold change vs veh, WDSUB1 / Fold change vs veh, HSP90B1 /// MIR3652 / RFU, ADSS / Fold change vs veh, ADSS / RFU, GK / Fold change vs veh, GK / RFU, ZNF148 / Fold change vs veh, ZNF148 / RFU, TAF9 / Fold change vs veh, TAF9 / RFU, SLC1A5 / Fold change vs veh, SLC1A5 / RFU, SLMO2 / Fold change vs veh, SLMO2 / RFU, ABCC4 / Fold change vs veh, ABCC4 / RFU, LOC101060439 /// RAP1B / Fold change vs veh, LOC101060439 /// RAP1B / RFU, RFX7 / Fold change vs veh, RFX7 / RFU, GTPBP10 / Fold change vs veh, GTPBP10 / RFU, CNEP1R1 / Fold change vs veh, CNEP1R1 / RFU, BIVM-ERCC5 /// ERCC5 / Fold change vs veh, BIVM-ERCC5 /// ERCC5 / RFU, ILF3 / Fold change vs veh, ILF3 / RFU 11762660_at / Fold change /veh 11762660_at / RFU VCAN (11757783_s_at) / Fold change /veh VCAN (11757783_s_at) / RFU DDX43 (11728927_at) / Fold change /veh DDX43 (11728927_at) / RFU KRT8 (11758188_x_at) / Fold change /veh KRT8 (11758188_x_at) / RFU NKD1 (11759106_at) / Fold change /veh NKD1 (11759106_at) / RFU SRD5A1 (11742802_a_at) / Fold change /veh SRD5A1 (11742802_a_at) / RFU TPSAB1 /// TPSB2 (11721975_s_at) / Fold change /veh TPSAB1 /// TPSB2 (11721975_s_at) / RFU GSTM3 (11746129_a_at) / Fold change /veh GSTM3 (11746129_a_at) / RFU IL23R (11737362_x_at) / Fold change /veh IL23R (11737362_x_at) / RFU TMEM51 (11727254_a_at) / Fold change /veh TMEM51 (11727254_a_at) / RFU PIWIL2 (11732686_x_at) / Fold change /veh PIWIL2 (11732686_x_at) / RFU ORM1 (11744905_x_at) / Fold change /veh ORM1 (11744905_x_at) / RFU CCDC152 (11743942_at) / Fold change /veh CCDC152 (11743942_at) / RFU ECM1 (11717891_a_at) / Fold change /veh ECM1 (11717891_a_at) / RFU IL23R (11748794_a_at) / Fold change /veh IL23R (11748794_a_at) / RFU TNFAIP8L3 (11732012_x_at) / Fold change /veh TNFAIP8L3 (11732012_x_at) / RFU MBOAT4 (11741988_at) / Fold change /veh MBOAT4 (11741988_at) / RFU 11764193_at / Fold change /veh 11764193_at / RFU TMEM53 (11763286_at) / Fold change /veh TMEM53 (11763286_at) / RFU MAGEB2 (11727129_at) / Fold change /veh MAGEB2 (11727129_at) / RFU TMEM200A (11744735_a_at) / Fold change /veh TMEM200A (11744735_a_at) / RFU CCDC152 (11751479_a_at) / Fold change /veh CCDC152 (11751479_a_at) / RFU FAM211A (11726209_a_at) / Fold change /veh FAM211A (11726209_a_at) / RFU RGS16 (11746705_a_at) / Fold change /veh RGS16 (11746705_a_at) / RFU VCAN (11755009_s_at) / Fold change /veh VCAN (11755009_s_at) / RFU RHOB (11743442_s_at) / Fold change /veh RHOB (11743442_s_at) / RFU RGS16 (11720943_a_at) / Fold change /veh RGS16 (11720943_a_at) / RFU RGS16 (11720944_at) / Fold change /veh RGS16 (11720944_at) / RFU, VPS4B / Fold change vs veh, VPS4B / RFU, CREB1 / Fold change vs veh, CREB1 / RFU, DNAJC13 / Fold change vs veh, DNAJC13 / RFU, GNAQ / Fold change vs veh, GNAQ / RFU, CDK5R1 / Fold change vs veh, CDK5R1 / RFU, ZRANB3 / Fold change vs veh, ZRANB3 / RFU, CUL4A / Fold change vs veh, CUL4A / RFU, CCNY / Fold change vs veh, CCNY / RFU, UFL1 / Fold change vs veh, UFL1 / RFU, COG3 / Fold change vs veh, COG3 / RFU, DIAPH2 / Fold change vs veh, DIAPH2 / RFU, SKA2 / Fold change vs veh, SKA2 / RFU, AFF3 / Fold change vs veh, AFF3 / RFU, LMF1 / Fold change vs veh, LMF1 / RFU, IPO11 / Fold change vs veh, IPO11 / RFU, DFFB / Fold change vs veh, DFFB / RFU, FOXP1 / Fold change vs veh, FOXP1 / RFU, CARD8 / Fold change vs veh, CARD8 / RFU, STRN3 / Fold change vs veh, STRN3 / RFU, ADK / Fold change vs veh, ADK / RFU, RASSF2 / Fold change vs veh, RASSF2 / RFU, WIPF1 / Fold change vs veh, WIPF1 / RFU, LARP1B / Fold change vs veh, LARP1B / RFU, RASA1 / Fold change vs veh, RASA1 / RFU, RB1 / Fold change vs veh, RB1 / RFU, PPFIA1 / Fold change vs veh, PPFIA1 / RFU, MAT2A / Fold change vs veh, MAT2A / RFU, CCT5 / Fold change vs veh, CCT5 / RFU, WDR92 / Fold change vs veh, WDR92 / RFU, CUX1 / Fold change vs veh, CUX1 / RFU, TTC7A / Fold change vs veh, TTC7A / RFU, TMEM135 / Fold change vs veh, TMEM135 / RFU, DEPTOR / Fold change vs veh, DEPTOR / RFU, CPM / Fold change vs veh, CPM / RFU, DNAJB6 / Fold change vs veh, DNAJB6 / RFU, CACNA2D3 / Fold change vs veh, CACNA2D3 / RFU, DTX4 / Fold change vs veh, DTX4 / RFU, TFCP2 / Fold change vs veh, TFCP2 / RFU, GMCL1 /// GMCL1P1 / Fold change vs veh, GMCL1 /// GMCL1P1 / RFU, AEBP2 / Fold change vs veh, AEBP2 / RFU, SNHG1 /// SNORD22 /// SNORD25 /// SNORD26 /// SNORD27 /// SNORD28 /// SNORD29 /// SNORD31 / Fold change vs veh, SNHG1 /// SNORD22 /// SNORD25 /// SNORD26 /// SNORD27 /// SNORD28 /// SNORD29 /// SNORD31 / Fold change (Aza/veh), C12orf56 (ProbeSet 11735607_a_at) / Fold change (ACY-1035/veh), C12orf56 (ProbeSet 11735607_a_at) / Fold change (Aza/veh), FGFR1OP (ProbeSet 11751329_s_at) / Fold change (ACY-1035/veh), FGFR1OP (ProbeSet 11751329_s_at) / Fold change (Aza/veh), VPS36 (ProbeSet 11739960_a_at) / Fold change (ACY-1035/veh), VPS36 (ProbeSet 11739960_a_at) / RFU SYPL1 (11715823_x_at) / Fold change /veh SYPL1 (11715823_x_at) / RFU IGFBP7 (11715501_s_at) / Fold change /veh IGFBP7 (11715501_s_at) / RFU REEP3 (11722064_at) / Fold change /veh REEP3 (11722064_at) / RFU IGLL1 (11728026_x_at) / Fold change /veh IGLL1 (11728026_x_at): dose or concentration left out as unconfirmed
Conditions: ProbeSet 11718569_a_at; LIST D

In the case of `Nc1ncn([C@@H]2O[C@H](CO)[C@@H](O)[C@H]2O)c(=O)n1` [azacitidine], the “Fold change vs veh, WIPF1” value was 0.72.
